Assay results from ChEMBL document CHEMBL1255476, “Telbivudine exhibits no inhibitory activity against HIV-1 clinical isolates in vitro” (Antimicrob Agents Chemother, 2010).

Columns and labels:
[1] = test system: Human immunodeficiency virus 1; assay: Antiviral activity against HIV1 subtype A isolate 2 infected in HEK293 cells assessed as inhibition of virus replication after 72 hrs; format: functional, organism-based; settings: Human immunodeficiency virus 1, subtype A isolate 2, HEK293, 72 h
[2] = test system: Human immunodeficiency virus 1; assay: Antiviral activity against HIV1 subtype A isolate 1 infected in HEK293 cells assessed as inhibition of virus replication after 72 hrs; format: functional, organism-based; settings: Human immunodeficiency virus 1, HEK293, 72 h
[3] = test system: Human immunodeficiency virus 1; assay: Antiviral activity against HIV1 expressing reverse transcriptase K103N/Y181C/G190A mutant infected in HEK293 cells assessed as inhibition of virus replication after 72 hrs; format: functional, organism-based; settings: Human immunodeficiency virus 1, HEK293, 72 h
[4] = test system: Human immunodeficiency virus 1; assay: Antiviral activity against HIV1 subtype BF isolate 5 infected in HEK293 cells assessed as inhibition of virus replication after 72 hrs; format: functional, organism-based; settings: Human immunodeficiency virus 1, subtype BF isolate 5, HEK293, 72 h
[5] = test system: Human immunodeficiency virus 1; assay: Antiviral activity against HIV1 subtype D isolate 8 infected in HEK293 cells assessed as inhibition of virus replication after 72 hrs; format: functional, organism-based; settings: Human immunodeficiency virus 1, subtype D isolate 8, HEK293, 72 h
[6] = test system: Human immunodeficiency virus 1; assay: Antiviral activity against HIV1 subtype B isolate 4 infected in HEK293 cells assessed as inhibition of virus replication after 72 hrs; format: functional, organism-based; settings: Human immunodeficiency virus 1, HEK293, 72 h
[7] = Cmax in human at 600 mg; format: ADME, organism-based; design: dose 600 mg; settings: in vivo
[8] = test system: Human immunodeficiency virus 1; assay: Antiviral activity against HIV1 NL4-3 infected in HEK293 cells assessed as inhibition of virus replication after 72 hrs; format: functional, organism-based; settings: Human immunodeficiency virus 1, NL4-3, HEK293, 72 h
HEK293 [9] = assay: Cytotoxicity against human HEK293 cells at 600 uM; format: cell-based; settings: hek293, 600 µM
[10] = test system: Human immunodeficiency virus 1; assay: Antiviral activity against HIV1 expressing reverse transcriptase D67N/K70R/T215F/K219E/M184V mutant infected in HEK293 cells assessed as inhibition of virus replication after 72 hrs; format: functional, organism-based; settings: Human immunodeficiency virus 1, HEK293, 72 h
HEK293 [11] = assay: Cytotoxicity against human HEK293 cells at 2000 uM; format: cell-based; settings: hek293, 2000 µM
[12] = test system: Human immunodeficiency virus 1; assay: Antiviral activity against HIV1 subtype C isolate 6 infected in HEK293 cells assessed as inhibition of virus replication after 72 hrs; format: functional, organism-based; settings: Human immunodeficiency virus 1, HEK293, 72 h
[13] = test system: Human immunodeficiency virus 1; assay: Antiviral activity against HIV1 subtype C isolate 7 infected in HEK293 cells assessed as inhibition of virus replication after 72 hrs; format: functional, organism-based; settings: Human immunodeficiency virus 1, subtype C isolate 7, HEK293, 72 h
[14] = test system: Human immunodeficiency virus 1; assay: Antiviral activity against HIV1 subtype B isolate 3 infected in HEK293 cells assessed as inhibition of virus replication after 72 hrs; format: functional, organism-based; settings: Human immunodeficiency virus 1, subtype B isolate 3, HEK293, 72 h
HEK293 [15] = assay: Cytotoxicity against human HEK293 cells at 100 uM; format: cell-based; settings: hek293, 100 µM

Row | SMILES | EC50 [1] [µM] | EC50 [2] [µM] | EC50 [3] [µM] | EC50 [4] [µM] | EC50 [5] [µM] | EC50 [6] [µM] | Cmax [7] [µM] | EC50 [8] [µM] | Activity (HEK293 [9]) | EC50 [10] [µM] | Activity (HEK293 [11]) | EC50 [12] [µM] | EC50 [13] [µM] | EC50 [14] [µM] | Activity (HEK293 [15])
1 | Cc1cn([C@@H]2C[C@@H](O)[C@H](CO)O2)c(=O)[nH]c1=O [TELBIVUDINE] | > 600 | > 600 | > 600 | > 600 | > 600 | > 600 | 13.2 | > 600 | Non-toxic | > 600 | Non-toxic | > 600 | > 600 | > 600 | 
2 | C=C1[C@H](CO)[C@@H](O)C[C@@H]1n1cnc2c(=O)[nH]c(N)nc21.O [ENTECAVIR] | 13.2 | 12.5 | 11.7 | 13.6 | 7.62 | 13.5 |  | 12.6 |  | > 100 |  | 9.51 | 9.95 | 15.1 | Non-toxic
3 | Nc1ccn([C@@H]2CS[C@H](CO)O2)c(=O)n1 [LAMIVUDINE] | 4.48 | 3.54 | 7.16 | 4.24 | 3.25 | 5.43 |  | 4.68 |  | > 300 |  | 3.9 | 4.06 | 4.78 | 
